Test results published in ChEMBL document CHEMBL5380816, “Inclusion of Nitrofurantoin into the Realm of Cancer Chemotherapy via Biology-Oriented Synthesis and Drug Repurposing” (J Med Chem, 2023).
Calls of active or inactive are those of the source. No cut-off for these calls is given here.

Experiments:
HepG2 [1] = assay: Induction of apoptosis in human HepG2 cells assessed as early apoptotic cells by measuring bright green patch incubated at 0.11 uM for 72 hrs by acridine orange-ethidium bromide dual staining based fluorescence microscopic analysis; format: functional, cell-based
HeLa [2] = assay: Anticancer activity against human HeLa cells assessed as smaller cells incubated at 0.11 uM for 72 hrs by phase contrast inverted microscopic analysis; format: functional, cell-based
HeLa [3] = assay: Induction of oxidative stress in human HeLa cells assessed as cell death by measuring redox alteration fluorescence incubated at 0.098 uM for 72 hrs in presence of dihydro dichlorofluorescein diacetate by DCFH-DA based flow cytometric analysis relative to control; format: functional
MCF7 [4] = assay: Induction of cell cycle arrest in human MCF7 cells assessed as accumulation of cells at sub-G0/G1 phase incubated for 24 hrs; format: functional, cell-based
Caco-2 [5] = assay: Induction of apoptosis in human Caco-2 cells assessed as caspase3/7 activation at 0.11 uM using caspase-glo 3/7 as substrate relative to control; format: functional
HeLa [6] = assay: Anticancer activity against human HeLa cells assessed as cell shrinkage incubated at 0.11 uM for 72 hrs by phase contrast inverted microscopic analysis; format: functional, cell-based
Caco-2 [7] = assay: Anticancer activity against human Caco-2 cells assessed as cell shrinkage incubated at 0.11 uM for 72 hrs by phase contrast inverted microscopic analysis; format: functional, cell-based
HeLa [8] = assay: Induction of apoptosis in human HeLa cells assessed as viable cells incubated at 0.11 uM for 72 hrs by annexin V-FITC based propidium iodide dual staining assay (reference value: 97.23%); format: functional; details: read-out: Activity
MCF7 [9] = assay: Induction of apoptosis in human MCF7 cells assessed as early apoptotic cells incubated at 0.11 uM for 72 hrs by annexin V-FITC based propidium iodide dual staining assay (reference value: 0.06%); format: functional
dsDNA = assay: Induction of damage in dsDNA (unknown origin) assessed as DNA disruption by measuring amplitude at 100 uM incubated for 2.5 hrs by EvaGreen based fluorescence plate reader analysis; format: nucleic-acid assay
HepG2 [10] = assay: Anticancer activity against human HepG2 cells assessed as smaller cells incubated at 0.11 uM for 72 hrs by phase contrast inverted microscopic analysis; format: functional, cell-based
HepG2 [11] = assay: Induction of apoptosis in human HepG2 cells assessed as early apoptotic cells incubated at 0.017 uM for 72 hrs by annexin V-FITC based propidium iodide dual staining assay (reference value: 1.74%); format: functional
Caco-2 [12] = assay: Induction of apoptosis in human Caco-2 cells assessed as caspase3/7 activation at 0.017 uM using caspase-glo 3/7 as substrate relative to control; format: functional
MCF7 [13] = assay: Induction of apoptosis in human MCF7 cells assessed as early apoptotic cells incubated at 0.017 uM for 72 hrs by annexin V-FITC based propidium iodide dual staining assay (reference value: 0.06%); format: functional
Caco-2 [14] = assay: Induction of apoptosis in human Caco-2 cells assessed as viable cells incubated at 0.017 uM for 72 hrs by annexin V-FITC based propidium iodide dual staining assay (reference value: 99.89%); format: functional; details: read-out: Activity
MCF7 [15] = assay: Induction of apoptosis in human MCF7 cells assessed as necrotic cells incubated at 0.097 uM for 72 hrs by annexin V-FITC based propidium iodide dual staining assay (reference value: 0.03%); format: functional
MCF7 [16] = assay: Induction of apoptosis in human MCF7 cells assessed as viable cells incubated at 0.097 uM for 72 hrs by annexin V-FITC based propidium iodide dual staining assay (reference value: 99.9%); format: functional; details: read-out: Activity
MCF7 [17] = assay: Anticancer activity against human MCF7 cells assessed as losing contact with neighbouring cells incubated at 0.097uM for 72 hrs by phase contrast inverted microscopic analysis; format: functional, cell-based
HeLa [18] = assay: Anticancer activity against human HeLa cells assessed as absence of normal spindle shape incubated at 0.097uM for 72 hrs by phase contrast inverted microscopic analysis; format: functional, cell-based
Caco-2 [19] = assay: Induction of apoptosis in human Caco-2 cells assessed as necrotic cells incubated at 0.097 uM for 72 hrs by annexin V-FITC based propidium iodide dual staining assay (reference value: 0.02%); format: functional
Caco-2 [20] = assay: Induction of apoptosis in human Caco-2 cells assessed as caspase3/7 activation at 0.097 uM using caspase-glo 3/7 as substrate relative to control; format: functional
HeLa [21] = assay: Induction of apoptosis in human HeLa cells assessed as early apoptotic cells by measuring bright green patch incubated at 0.097 uM for 72 hrs by acridine orange-ethidium bromide dual staining based fluorescence microscopic analysis; format: functional, cell-based
MCF7 [22] = assay: Induction of oxidative stress in human MCF7 cells assessed as cell death by measuring redox alteration fluorescence incubated at 0.017 uM for 72 hrs in presence of dihydro dichlorofluorescein diacetate by DCFH-DA based flow cytometric analysis relative to control; format: functional
MCF7 [23] = assay: Induction of apoptosis in human MCF7 cells assessed as total apoptotic cells incubated at 0.098 uM for 72 hrs by annexin V-FITC based propidium iodide dual staining assay (reference value: 0.04 %); format: functional
HeLa [24] = assay: Anticancer activity against human HeLa cells assessed as smaller cells incubated at 0.098uM for 72 hrs by phase contrast inverted microscopic analysis; format: functional, cell-based
MCF7 [25] = assay: Anticancer activity against human MCF7 cells assessed as round cells incubated at 0.098uM for 72 hrs by phase contrast inverted microscopic analysis; format: functional, cell-based
MCF7 [26] = assay: Induction of apoptosis in human MCF7 cells assessed as viable cells incubated at 0.098 uM for 72 hrs by annexin V-FITC based propidium iodide dual staining assay (reference value: 99.9%); format: functional; details: read-out: Activity
MCF7 [27] = assay: Induction of apoptosis in human MCF7 cells assessed as early apoptotic cells by measuring bright green patch incubated at 0.098 uM for 72 hrs by acridine orange-ethidium bromide dual staining based fluorescence microscopic analysis; format: functional, cell-based
MCF7 [28] = assay: Anticancer activity against human MCF7 cells assessed as smaller cells incubated at 0.098uM for 72 hrs by phase contrast inverted microscopic analysis; format: functional, cell-based
HeLa [29] = assay: Induction of apoptosis in human HeLa cells assessed as early apoptotic cells by measuring bright green patch incubated at 0.098 uM for 72 hrs by acridine orange-ethidium bromide dual staining based fluorescence microscopic analysis; format: functional, cell-based
MCF7 [30] = assay: Induction of apoptosis in human MCF7 cells assessed as late apoptotic cells by measuring orange to red patch incubated at 0.098 uM for 72 hrs by acridine orange-ethidium bromide dual staining based fluorescence microscopic analysis; format: functional, cell-based
HepG2 [31] = assay: Induction of apoptosis in human HepG2 cells assessed as late apoptotic cells by measuring orange to red patch incubated at 0.098 uM for 72 hrs by acridine orange-ethidium bromide dual staining based fluorescence microscopic analysis; format: functional, cell-based
Caco-2 [32] = assay: Induction of apoptosis in human Caco-2 cells assessed as early apoptotic cells by measuring bright green patch incubated at 0.098 uM for 72 hrs by acridine orange-ethidium bromide dual staining based fluorescence microscopic analysis; format: functional, cell-based
HepG2 [33] = assay: Anticancer activity against human HepG2 cells assessed as absence of normal spindle shape incubated at 0.098uM for 72 hrs by phase contrast inverted microscopic analysis; format: functional, cell-based
MCF7 [34] = assay: Induction of apoptosis in human MCF7 cells assessed as late apoptotic cells incubated at 0.098 uM for 72 hrs by annexin V-FITC based propidium iodide dual staining assay (reference value: 0.01%); format: functional
Caco-2 [35] = assay: Anticancer activity against human Caco-2 cells assessed as round cells incubated at 0.098uM for 72 hrs by phase contrast inverted microscopic analysis; format: functional, cell-based

How did the Activity (HepG2 [1]) turn out when `C#CCN1C(=O)CN(/N=C/c2ccc([N+](=O)[O-])o2)C1=O` was run?
Its Activity is “Active”.

What about the Activity (HeLa [2]) of the same compound?
Its Activity is “Active”.

What about the Activity (HeLa [3]) of the same compound?
The Activity was 30.75%.

And the Activity (MCF7 [4])?
The Activity was “Active”.

What about the Activity (Caco-2 [5]) of the same compound?
Its Activity is 55%.

And the Activity (HeLa [6])?
Its Activity is “Active”.

What about the Activity (Caco-2 [7]) of the same compound?
The Activity was “Active”.

What about the viability at 0.11 µM (HeLa [8]) of the same compound?
The viability at 0.11 µM was 66.4%.

What about the Activity (MCF7 [9]) of the same compound?
Its Activity is 7.55%.

What about the Activity (dsDNA) of the same compound?
Its Activity is 177.

And the Activity (HepG2 [10])?
Its Activity is “Active”.

Which Activity (HepG2 [11]) does the source give for `O=c1[nH]cc(F)c(=O)[nH]1` [FLUOROURACIL] here?
The Activity was 7.69%.

What about the Activity (Caco-2 [12]) of the same compound?
Its Activity is 12%.

What about the Activity (MCF7 [13]) of the same compound?
The Activity was 6.16%.

And the viability at 0.017 µM (Caco-2 [14])?
Its viability at 0.017 µM is 89.7%.

`NS(=O)(=O)c1ccc(-n2cc(CN3C(=O)CN(/N=C/c4ccc([N+](=O)[O-])o4)C3=O)nn2)cc1` was tested. Which Activity (MCF7 [15]) did it give?
Its Activity is 0.6%.

And the viability at 0.097 µM (MCF7 [16])?
Its viability at 0.097 µM is 31.1%.

What about the Activity (MCF7 [17]) of the same compound?
Its Activity is “Active”.

What about the Activity (HeLa [18]) of the same compound?
The Activity was “Active”.

What about the Activity (Caco-2 [19]) of the same compound?
Its Activity is 13.8%.

What about the Activity (Caco-2 [20]) of the same compound?
The Activity was 58%.

And the Activity (HeLa [21])?
Its Activity is “Active”.

With `O=C(CN1C(=O)CN(/N=C/c2ccc([N+](=O)[O-])o2)C1=O)c1ccc(Cl)cc1` as the compound, how does the Activity (MCF7 [22]) read?
Its Activity is 34.7%.

And the Activity (MCF7 [23])?
The Activity was 41.73%.

What about the Activity (HeLa [24]) of the same compound?
The Activity was “Active”.

And the Activity (MCF7 [25])?
The Activity was “Active”.

What about the viability at 0.098 µM (MCF7 [26]) of the same compound?
The viability at 0.098 µM was 63.6%.

And the Activity (MCF7 [27])?
The Activity was “Active”.

What about the Activity (MCF7 [28]) of the same compound?
Its Activity is “Active”.

And the Activity (HeLa [29])?
Its Activity is “Active”.

And the Activity (MCF7 [30])?
The Activity was “Active”.

And the Activity (HepG2 [31])?
The Activity was “Active”.

And the Activity (Caco-2 [32])?
The Activity was “Active”.

And the Activity (HepG2 [33])?
The Activity was “Active”.

What about the Activity (MCF7 [34]) of the same compound?
The Activity was 38.55%.

What about the Activity (Caco-2 [35]) of the same compound?
The Activity was “Active”.
